The values below come from patent US12030905B2, “Steviol glycoside compounds, compositions for oral ingestion or use, and method for enhancing steviol glycoside solubility” (Cargill, Incorporated, priority 2014, dated 2024).

Molecules are shown by their SMILES.

The nature of data set [1]: Instantaneous solubility in deionized water at room temperature. The class given is physicochemical. The following applies: for instantaneous solubility: vigorously mixed with deionized water for 10 minutes at room temperature, clear solution without precipitates. The source says:
(§1) The composition can optionally be expressed in terms of the concentration of one or more steviol glycoside(s). Beneficially, it has been founds that compound(s) 1, 2, 3, and/or 4, can improve solubility of steviol glycosides in an aqueous solution, and therefore compositions can be prepared having a greater concentration of steviol glycosides in solution. As used herein “instantaneous solubility” refers to the solubility of a steviol glycoside, or mixture of steviol glycosides, that are vigorously mixed with deionized water at room temperature (25° C.). As used herein “equilibrium solubility” refers to the solubility of a steviol glycoside, or mixture of steviol glycosides, that are vigorously mixed with deionized water at 80° C. for 15 minutes, cooled to room temperature (25° C.), and then observed up to 4 days. Clear solutions without precipitates are considered soluble. Unless indicated otherwise herein, the term “solubility” refers to “equilibrium solubility.”
(§2) Instantaneous solubility is determined by mixing steviol glycoisde with deionized water vigorously for 10 minutes at room temperature. Equilibrium solubility is determined by heating deionized water with steviol glycoside at 80° C. for 15 minutes and cooling down to room temperature for observation up to 4 days. Clear solutions without precipitates are considered soluble.

A short description of data set [2]: Equilibrium solubility (heated at 80° C. for 15 minutes, cooled to room temperature, observed up to 4 days). The class given is physicochemical. The following applies: for equilibrium solubility: deionized water, 80° C. for 15 minutes, cooled to room temperature, observed up to 4 days.
Description: as §1, §2

The conditions of data set [3]: taste, versus sucrose/sugar; cited from earlier work.

`C=C1C[C@@]23CC[C@H]4[C@@](C)(CCC[C@@]4(C)C(=O)O[C@@H]4O[C@H](CO)[C@@H](O)[C@H](O)[C@H]4O[C@@H]4O[C@H](CO)[C@@H](O)[C@H](O)[C@H]4O)[C@@H]2CC[C@]1(O[C@@H]1O[C@H](CO)[C@@H](O)[C@H](O[C@@H]2O[C@H](CO)[C@@H](O)[C@H](O)[C@H]2O)[C@H]1O[C@@H]1O[C@H](CO)[C@@H](O)[C@H](O)[C@H]1O)C3` [RebD, rebaudioside D]: the instantaneous solubility in data set [1] is less than 0.08%; in data set [1] (listed as rebaudioside D) it was “less than 0.08%”. Further, the “equilibrium solubility at 0.08%” value in data set [2] (RebD 0.08% in deionized water) is on record as “soluble”. The same compound displayed an equilibrium solubility in data set [2] of 0.08%. The “times sweeter than sucrose” value in data set [3] is recorded as 200-220 times.

Turning to `C=C1C[C@@]23CC[C@H]4[C@@](C)(CCC[C@@]4(C)C(=O)O[C@@H]4O[C@H](CO)[C@@H](O)[C@H](O[C@@H]5O[C@H](CO)[C@@H](O)[C@H](O)[C@H]5O)[C@H]4O[C@@H]4O[C@H](CO)[C@@H](O)[C@H](O)[C@H]4O)[C@@H]2CC[C@]1(O[C@@H]1O[C@H](CO)[C@@H](O)[C@H](O[C@@H]2O[C@H](CO)[C@@H](O)[C@H](O)[C@H]2O)[C@H]1O[C@@H]1O[C@H](CO)[C@@H](O)[C@H](O)[C@H]1O)C3` [RebM, rebaudioside M], the “instantaneous solubility at 0.10%” value in data set [1] (RebM 0.10% in deionized water) was “soluble”. In addition, in data set [1] (RebM 0.13% in deionized water), the “instantaneous solubility at 0.13%” value is given as “soluble”. In addition, the instantaneous solubility entry in data set [1] is listed as “at least 0.13%”; in data set [1] (listed as rebaudioside M), “about 0.13%”. In addition, the “equilibrium solubility at 0.10%” value in data set [2] (RebM 0.10% in deionized water) is recorded as “soluble”. In addition, in data set [2] (RebM 0.13% in deionized water), the “equilibrium solubility at 0.13%” value is recorded as “soluble”. Further, the “equilibrium solubility at 0.20%” value in data set [2] (RebM 0.20% in deionized water) is recorded as “soluble”. Besides, the equilibrium solubility entry in data set [2] (listed as rebM) is “at least 0.2%”; in data set [2] (listed as rebaudioside M), “about 0.2%”.
